We go through 4 molecules from ChEMBL document CHEMBL4418490, “N-(heteroaryl)-sulfonamide derivatives useful as s100-inhibitors” (2018).

The test system of series [1] is MC-38. Nature of the series: Antitumor activity against C215 transfected MC38 cells implanted in C57BL/6 mouse assessed as inhibition of tumor growth at 30 mg/kg, po dosed daily for 15 days starting following day of tumor inoculation. Format: functional, organism-based.
Series [2] in a line: Plasma concentration in C215 transfected MC38 cells implanted C57BL/6 mouse at 1 mg/kg, iv dosed as cassette formulation and measured at 4 hrs after post dose by LC-MS analysis. Format: ADME, organism-based.
Series [3] is described as follows: Plasma concentration in C215 transfected MC38 cells implanted C57BL/6 mouse at 1 mg/kg, iv dosed as cassette formulation and measured at 0.5 hrs after post dose by LC-MS analysis. It is filed as ADME, organism-based.
Series [4] is described as follows: Plasma concentration in C215 transfected MC38 cells implanted C57BL/6 mouse assessed as N-(5-chloro-3-hydroxypyridin-2-yl)-1-(3,5-dichlorophenyl)methanesulfonamide level at 1 mg/kg, iv dosed as cassette formulation and measured at 7 hrs after post dose by LC-MS analysis. The following applies: in vivo. It is filed as ADME, organism-based.
Series [5] is described as follows: Plasma concentration in C215 transfected MC38 cells implanted C57BL/6 mouse at 1 mg/kg, iv dosed as cassette formulation and measured at 0.083 hrs after post dose by LC-MS analysis. Format: ADME, organism-based.
Series [6] is described as follows: Plasma concentration in C215 transfected MC38 cells implanted C57BL/6 mouse assessed as N-(5-chloro-3-hydroxypyridin-2-yl)-1-(3,5-dichlorophenyl)methanesulfonamide level at 1 mg/kg, iv dosed as cassette formulation and measured at 1 hr after post dose by LC-MS analysis. Format: ADME, organism-based. The note with it: in vivo.
Series [7] can be described thus: Plasma concentration in C215 transfected MC38 cells implanted C57BL/6 mouse at 1 mg/kg, iv dosed as cassette formulation and measured at 1 hr after post dose by LC-MS analysis. It is filed as ADME, organism-based.
Series [8] can be described thus: Plasma concentration in C215 transfected MC38 cells implanted C57BL/6 mouse assessed as N-(5-chloro-3-hydroxypyridin-2-yl)-1-(3,5-dichlorophenyl)methanesulfonamide level at 5 mg/kg, po dosed as cassette formulation and measured at 1 hr after post dose by LC-MS analysis. It is filed as ADME, organism-based. The note with it: in vivo.
Series [9] can be described thus: Plasma concentration in C215 transfected MC38 cells implanted C57BL/6 mouse assessed as N-(5-chloro-3-hydroxypyridin-2-yl)-1-(3,5-dichlorophenyl)methanesulfonamide level at 5 mg/kg, po dosed as cassette formulation and measured at 2 hrs after post dose by LC-MS analysis. Format: ADME, organism-based. The following applies: in vivo.
Series [10] can be described thus: Plasma concentration in C215 transfected MC38 cells implanted C57BL/6 mouse assessed as N-(5-chloro-3-hydroxypyridin-2-yl)-1-(3,5-dichlorophenyl)methanesulfonamide level at 5 mg/kg, po dosed as cassette formulation and measured at 7 hrs after post dose by LC-MS analysis. Format: ADME, organism-based. The note with it: in vivo.
A short description of series [11]: Plasma concentration in C215 transfected MC38 cells implanted C57BL/6 mouse assessed as N-(5-chloro-3-hydroxypyridin-2-yl)-1-(3,5-dichlorophenyl)methanesulfonamide level at 5 mg/kg, po dosed as cassette formulation and measured at 0.5 hrs after post dose by LC-MS analysis. It is filed as ADME, organism-based. The note with it: in vivo.
Series [12] in a line: Plasma concentration in C215 transfected MC38 cells implanted C57BL/6 mouse assessed as N-(5-chloro-3-hydroxypyridin-2-yl)-1-(3,5-dichlorophenyl)methanesulfonamide level at 1 mg/kg, iv dosed as cassette formulation and measured at 2 hrs after post dose by LC-MS analysis. Format: ADME, organism-based. The following applies: in vivo.
Series [13] can be described thus: Plasma concentration in C215 transfected MC38 cells implanted C57BL/6 mouse assessed as N-(5-chloro-3-hydroxypyridin-2-yl)-1-(3,5-dichlorophenyl)methanesulfonamide level at 5 mg/kg, po dosed as cassette formulation and measured at 4 hrs after post dose by LC-MS analysis. It is filed as ADME, organism-based. The following applies: in vivo.
The nature of series [14]: Plasma concentration in C215 transfected MC38 cells implanted C57BL/6 mouse assessed as N-(5-chloro-3-hydroxypyridin-2-yl)-1-(3,5-dichlorophenyl)methanesulfonamide level at 1 mg/kg, iv dosed as cassette formulation and measured at 0.5 hrs after post dose by LC-MS analysis. It is filed as ADME, organism-based. The following applies: in vivo.
A short description of series [15]: Plasma concentration in C215 transfected MC38 cells implanted C57BL/6 mouse at 5 mg/kg, po dosed as cassette formulation and measured at 4 hrs after post dose by LC-MS analysis. Format: ADME, organism-based.
Series [16] can be described thus: Plasma concentration in C215 transfected MC38 cells implanted C57BL/6 mouse assessed as N-(5-chloro-3-hydroxypyridin-2-yl)-1-(3,5-dichlorophenyl)methanesulfonamide level at 1 mg/kg, iv dosed as cassette formulation and measured at 0.083 hrs after post dose by LC-MS analysis. The note with it: in vivo. It is filed as ADME, organism-based.
The nature of series [17]: Plasma concentration in C215 transfected MC38 cells implanted C57BL/6 mouse at 1 mg/kg, iv dosed as cassette formulation and measured at 2 hrs after post dose by LC-MS analysis. Format: ADME, organism-based.
Series [18] in a line: Plasma concentration in C215 transfected MC38 cells implanted C57BL/6 mouse at 1 mg/kg, iv dosed as cassette formulation and measured at 7 hrs after post dose by LC-MS analysis. It is filed as ADME, organism-based.
A short description of series [19]: Plasma concentration in C215 transfected MC38 cells implanted C57BL/6 mouse assessed as N-(5-chloro-3-hydroxypyridin-2-yl)-1-(3,5-dichlorophenyl)methanesulfonamide level at 1 mg/kg, iv dosed as cassette formulation and measured at 4 hrs after post dose by LC-MS analysis. It is filed as ADME, organism-based. The note with it: in vivo.
Series [20] in a line: Plasma concentration in C215 transfected MC38 cells implanted C57BL/6 mouse at 5 mg/kg, po dosed as cassette formulation and measured at 1 hr after post dose by LC-MS analysis. It is filed as ADME, organism-based.
Series [21] can be described thus: Plasma concentration in C215 transfected MC38 cells implanted C57BL/6 mouse at 5 mg/kg, po dosed as cassette formulation and measured at 0.5 hrs after post dose by LC-MS analysis. It is filed as ADME, organism-based.
A short description of series [22]: Plasma concentration in C215 transfected MC38 cells implanted C57BL/6 mouse at 5 mg/kg, po dosed as cassette formulation and measured at 2 hrs after post dose by LC-MS analysis. It is filed as ADME, organism-based.
Series [23] can be described thus: Plasma concentration in C215 transfected MC38 cells implanted C57BL/6 mouse at 5 mg/kg, po dosed as cassette formulation and measured at 7 hrs after post dose by LC-MS analysis. It is filed as ADME, organism-based.
Series [24] can be described thus: Plasma concentration in C215 transfected MC38 cells implanted C57BL/6 mouse assessed as N-(5-bromo-3-hydroxypyrazin-2-yl)-1-(3,4-dichlorophenyl)methanesulfonamide level at 1 mg/kg, iv dosed as cassette formulation and measured at 0.083 hrs after post dose by LC-MS analysis. Format: ADME, organism-based. The following applies: in vivo.
Series [25] in a line: Plasma concentration in C215 transfected MC38 cells implanted C57BL/6 mouse assessed as N-(5-bromo-3-hydroxypyrazin-2-yl)-1-(3,4-dichlorophenyl)methanesulfonamide level at 5 mg/kg, po dosed as cassette formulation and measured at 0.5 hrs after post dose by LC-MS analysis. Format: ADME, organism-based. The note with it: in vivo.
Series [26] is described as follows: Plasma concentration in C215 transfected MC38 cells implanted C57BL/6 mouse assessed as N-(5-bromo-3-hydroxypyrazin-2-yl)-1-(3,4-dichlorophenyl)methanesulfonamide level at 1 mg/kg, iv dosed as cassette formulation and measured at 0.5 hrs after post dose by LC-MS analysis. Format: ADME, organism-based. The note with it: in vivo.
The nature of series [27]: Plasma concentration in C215 transfected MC38 cells implanted C57BL/6 mouse assessed as N-(5-bromo-3-hydroxypyrazin-2-yl)-1-(3,4-dichlorophenyl)methanesulfonamide level at 5 mg/kg, po dosed as cassette formulation and measured at 7 hrs after post dose by LC-MS analysis. The note with it: in vivo. Format: ADME, organism-based.
Series [28] in a line: Plasma concentration in C215 transfected MC38 cells implanted C57BL/6 mouse assessed as N-(5-bromo-3-hydroxypyrazin-2-yl)-1-(3,4-dichlorophenyl)methanesulfonamide level at 5 mg/kg, po dosed as cassette formulation and measured at 1 hr after post dose by LC-MS analysis. Format: ADME, organism-based. The note with it: in vivo.
Series [29] is described as follows: Plasma concentration in C215 transfected MC38 cells implanted C57BL/6 mouse assessed as N-(5-bromo-3-hydroxypyrazin-2-yl)-1-(3,4-dichlorophenyl)methanesulfonamide level at 5 mg/kg, po dosed as cassette formulation and measured at 2 hrs after post dose by LC-MS analysis. Format: ADME, organism-based. The note with it: in vivo.
Series [30] is described as follows: Plasma concentration in C215 transfected MC38 cells implanted C57BL/6 mouse assessed as N-(5-bromo-3-hydroxypyrazin-2-yl)-1-(3,4-dichlorophenyl)methanesulfonamide level at 1 mg/kg, iv dosed as cassette formulation and measured at 7 hrs after post dose by LC-MS analysis. The note with it: in vivo. It is filed as ADME, organism-based.
A short description of series [31]: Plasma concentration in C215 transfected MC38 cells implanted C57BL/6 mouse assessed as N-(5-bromo-3-hydroxypyrazin-2-yl)-1-(3,4-dichlorophenyl)methanesulfonamide level at 1 mg/kg, iv dosed as cassette formulation and measured at 4 hrs after post dose by LC-MS analysis. Format: ADME, organism-based. The note with it: in vivo.
Series [32] can be described thus: Plasma concentration in C215 transfected MC38 cells implanted C57BL/6 mouse assessed as N-(5-bromo-3-hydroxypyrazin-2-yl)-1-(3,4-dichlorophenyl)methanesulfonamide level at 1 mg/kg, iv dosed as cassette formulation and measured at 2 hrs after post dose by LC-MS analysis. The note with it: in vivo. Format: ADME, organism-based.
Series [33] in a line: Plasma concentration in C215 transfected MC38 cells implanted C57BL/6 mouse assessed as N-(5-bromo-3-hydroxypyrazin-2-yl)-1-(3,4-dichlorophenyl)methanesulfonamide level at 5 mg/kg, po dosed as cassette formulation and measured at 4 hrs after post dose by LC-MS analysis. The note with it: in vivo. It is filed as ADME, organism-based.
Series [34] in a line: Plasma concentration in C215 transfected MC38 cells implanted C57BL/6 mouse assessed as N-(5-bromo-3-hydroxypyrazin-2-yl)-1-(3,4-dichlorophenyl)methanesulfonamide level at 1 mg/kg, iv dosed as cassette formulation and measured at 1 hr after post dose by LC-MS analysis. The following applies: in vivo. Format: ADME, organism-based.
For series [35], the system named is MC-38. In words: Antitumor activity against C215 transfected MC38 cells implanted in C57BL/6 mouse assessed as inhibition of tumor growth at 30 mg/kg, po dosed daily for 16 days starting following day of tumor inoculation. Format: functional, organism-based.

Active and inactive are the calls of the source. The rule behind the calls is not given here.

Consider `O=S(=O)(Nc1cnccc1O)c1cc(Cl)sc1Cl`, for which, in series [1], the TGI result is “Active”.
Consider `COc1cc(Cl)cnc1NS(=O)(=O)Cc1cc(Cl)cc(Cl)c1`, for which the concentration at 4 h in series [2] was found to be 0.17 µM; in series [15] it was 0.85 µM. Besides, the concentration at 0.5 h in series [3] is 0.55 µM; in [21] it was 3.6 µM. Also, the concentration in series [4] stood at 4 nM; in series [6], 3 nM; in series [8], 26 nM; in series [9] it was 21 nM; in series [10] it was 19 nM; in series [11] it was 45 nM. The concentration in series [12] came out at 6 nM; in series [13], 12 nM; in series [14], 5 nM; in [16], 44 nM; in series [19] it was 4 nM. In addition, the concentration at 0.083 h in series [5] is 6.3 µM. The results for the concentration at 1 h in series [7] and in series [20] were 0.084 µM and 1.6 µM, respectively. The figures for the concentration at 2 h in [17] and in series [22] were 0.38 µM and 1.3 µM, respectively. For the same molecule, the concentration at 7 h in series [18] was 0.15 µM; in [23], 0.7 µM.
With `COc1nc(Br)cnc1NS(=O)(=O)Cc1ccc(Cl)c(Cl)c1`, the concentration at 4 h came to 9.2 µM in series [2] and 59.4 µM in series [15]. The concentration at 0.5 h came out at 16.8 µM in series [3] and 51.7 µM in [21]. In addition, in series [5], the concentration at 0.083 h was 25.2 µM. Also, the concentration at 1 h in [7] was found to be 17.5 µM; in series [20] it was 69.4 µM. The concentration in [24] came out at 120 nM; in [25], 570 nM; in [26], 320 nM; in [27] it was 1100 nM; in series [28], 860 nM; in series [29], 800 nM. Besides, the concentration in [30] is 200 nM; in [31], 210 nM; in [32], 320 nM; in series [33], 630 nM; in series [34] it was 320 nM. In addition, the concentration at 2 h in series [17] amounted to 14.9 µM; in series [22], 78.9 µM. For the same molecule, the values for the concentration at 7 h in series [18] and in series [23] were 6.2 µM and 73.5 µM, respectively.
With `COc1ncc(S(=O)(=O)Nc2cncc(Cl)c2O)cc1Br`, the TGI entry in series [35] is “Active”.
